Measurements published in patent EP3820879B1, “PHOSPHORUS-CONTAINING PRODRUGS OF GEMCITABINE” (Changchun Changcheng Pharmaceutical Technology Co., LTD, priority 2018, dated 2020).

Assay: Mouse pharmacokinetic study: liver concentrations of dFdC and dFdU at 2h
Assay type: in vivo, C57BL/6 mice
Conditions: i.v., Gemcitabine 15 mg/kg or Compound 4 at equivalent dose, Fig. 2
Procedure: C57BL/6 mice used in this experiment were purchased from Beijing Vital River Laboratory Animal Technology Co., Ltd., and male mice with a body weight in the range of 16~19 g were tested for administration. The animals were housed with appropriate air conditions (temperature: 20~25 °C; humidity: 40%~70%; light/dark cycle: 12 hours), and were provided with the food and water ad lib.
The solution media for IV administration were DMSO: 30% solutol HS-15:saline = 10:10:80 (v/v/v). Test substances were dissolved in the media to obtain a clear solution, and filtered through PTFE to get a colorless clear solution for IV administration.
The solution media for oral administration were DMSO: 30% solutol HS-15:saline = 10:10:80 (v/v/v). […]
The pharmacokinetic (PK) profile of liver-targeted gemcitabine (dFdC) prodrug according to Formula I (i.e., Compound 4) was evaluated in male […] mice following intravenous administration (i.v.) at an equivalent dose to 15 mg/kg of Gemcitabine or following oral administration (PO or i.g.) at a dose of 80 mg/kg.
Blood samples of designated animals (n = 3/time point/compound) were taken at 0.083, 0.25, 0.5, 1, 2, 4, and 8 hours following i.v. administration, and at 0.25, 0.5, 1, 2, 4, 8 and 24 hours following PO administration, respectively. […] Pharmacokinetic parameters were calculated using WinNonlin software (Pharsight Corp., Mountain View, CA).

dFdC levels in the liver: no detectable dFdC levels
dFdU levels in the liver: significant levels of dFdU
SMILES: Nc1ccn([C@@H]2O[C@H](CO)[C@@H](O)C2(F)F)c(=O)n1 [Gemcitabine, 2',2'-difluoro-2'-deoxycytidine]
